From patent US20160074409A1, “Treatment of Skeletal-Related Disorders” (priority 2013, published 2016)

Tested on: MDA-MB-231 breast carcinoma cells
Experiment: Bone density in bone metastasis model (femoral and tibial X-ray densitometry)
Format: in vivo, Nude (rnu/rnu) female rats
Conditions: metastatic bone cancer model, MDA-MB-231 cells injected into tibia; Group G5: 90 mg/kg BID PO, N=6; 6 weeks; FIG. 1
Procedure: Nude (rnu/rnu) female rats were obtained from Charles River (Wilmington, Mass.). The rats were pair-housed in polycarbonate micro-isolator cages lined with autoclaved bedding. Autoclaved reverse osmosis (RO) water and autoclaved standard rat chow were provided ad libitum. Body weights were recorded weekly throughout the course of the studies. Animals were maintained for 6 weeks and euthanized by carbon dioxide inhalation at the end of the experiment. The animals were randomized to study groups by body weight as follows: G1: vehicle BID PO (N=6), G2: 0.04 mg/kg zoledronate QWK IV (N=6), G5: 90 mg/kg Compound of Formula IV BID PO (N=6), and G6: No implantation (N=3).
MDA-MB-231 breast carcinoma cells were propagated by standard tissue culture methods in RPMI media containing 10% fetal bovine serum. Exponentially growing cells were trypsinized and resuspended in phosphate-buffered saline at a concentration of 2.5×10^7 cells/mi. Rats were maintained under isoflurane anesthesia during the tumor injection procedure. […]
Radiographs were taken with rats under general anaesthesia. […] Radiographs were scanned and analysed. […]
Femoral and tibial X-ray densitometry was performed. In brief, bones were X-rayed, the film was scanned and the electronic image then analysed by a real-colour image analysis system. Pixel density was then determined and used as a measure of disease progression.

CC#CC(=O)N1CCCC1c1nc(-c2ccc(C(=O)Nc3ccccn3)cc2)c2c(N)ncnn12 (stereo not shown) [Compound of Formula IV]
bone density (femoral and tibial X-ray densitometry, pixel density): inhibition of the decrease in bone density
